Laboratory results as given in US10604512B2, “3-(1H-indol-2-yl)-1H-indazoles and therapeutic uses thereof” (Samumed, LLC, priority 2015, dated 2020).

How the values were obtained:
Type in all cases: cell-based
[1] = system: Wnt activity (Sp5-Luc reporter, TCF/LEF binding sites) in SW480 colon carcinoma cells; assay: Screening assay for Wnt activity: Sp5-Luc reporter gene assay in stably transduced SW480 colon carcinoma cells; details: Homo sapiens; for EC50: overnight incubation, 10-point curve from 10 μM
Outline: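 SW480 cells stably transduced with a luciferase reporter driven by an Sp5 promoter of eight TCF/LEF sites were plated at 4,000 cells/well in 1% FBS medium. They were exposed overnight at 37° C to a 10-point 1:3 dilution series from 10 μM (0.1% DMSO). Luminescence was normalized to DMSO for four-parameter EC50, or percent inhibition at 10 μM.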

SW480 colon cancer cells = assay: Cell viability assay (CellTiter-Blue) in SW480 colon cancer cells; details: Homo sapiens, 96 h, four days; for inhibition at 10 µM: given where EC50 >10 μM, read-out: percent inhibition at 10 μM; for EC50: CellTiter-Blue
Outline: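 Four-day viability readout in SW480 cells: compound at 0.0045–10 μM (1:3 series), DMSO controls in eight replicates, CellTiter-Blue fluorescence after ~3 h. Values are regression-derived EC50s, or percent inhibition at 10 μM when EC50 exceeds 10 μM.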

IL-6 = assay: Inhibition of IL-6 in LPS-stimulated THP-1 human monocyte cells (HTRF); details: for EC50: IL-6 inhibition, LPS-stimulated THP-1 cells, HTRF; for inhibition at 10 µM: THP-1, printed beside >10 μM EC50, top concentration 10 μM, meaning not given, read-out: percentage in parentheses after EC50 >10
Outline: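 THP-1 cells serum-reduced (1% FBS, 24 h), then 5000 cells/well preincubated 2 h with compound (10-point 1:3 series from 10 μM, 0.1% DMSO) before 500 ng/mL LPS for 22 h at 37 °C. Secreted IL-6 quantified by HTRF 665/620 ratio; DMSO-normalised duplicates fitted to four-parameter EC50; above 10 μM, % inhibition at 10 μM given.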

| EC50 [1] [nM] | EC50 (SW480 colon cancer cells) [nM] | EC50 (IL-6) [nM] | Compound | inhibition at 10 µM (SW480 colon cancer cells) [%] | inhibition at 10 µM (IL-6) [%] | inhibition at 10 µM ([1]; at 10 μM, given where EC50 >10 μM, read-out: percent inhibition at 10 μM) [%] |
| --- | --- | --- | --- | --- | --- | --- |
| 595 | > 10000 | > 10000 | O=C(Nc1cncc(-c2ccc3[nH]nc(-c4cc5c(-c6cccc(F)c6)cccc5[nH]4)c3c2)c1)C1CCCCC1 [Compound 23, N-(5-(3-(4-(3-Fluorophenyl)-1H-indol-2-yl)-1H-indazol-5-yl)pyridin-3-yl) cyclohexanecarboxamide] | 20.2 | 34.2 |  |
| 3560 | > 10000 | 136 | c1ccc(-c2ccc3[nH]nc(-c4cc5c(-c6ccncc6)cccc5[nH]4)c3c2)nc1 [Compound 140, 5-(Pyridin-2-yl)-3-(4-(pyridin-4-yl)-1H-indol-2-yl)-1H-indazole] | 37.8 |  |  |
| 5000 | > 10000 | > 10000 | c1cncc(-c2cccc3[nH]c(-c4n[nH]c5ccc(-c6cncc(CN7CCCCC7)c6)cc45)cc23)c1 [Compound 99, 5-(5-(Piperidin-1-ylmethyl)pyridin-3-yl)-3-(4-(pyridin-3-yl)-1H-indol-2-yl)-1H-indazole] | 6.5 | 50.5 |  |
| 4260 | > 10000 | > 10000 | CC(C)(C)CC(=O)Nc1cncc(-c2ccc3[nH]nc(-c4cc5c(-c6ccccc6F)cccc5[nH]4)c3c2)c1 [Compound 72, N-(5-(3-(4-(2-Fluorophenyl)-1H-indol-2-yl)-1H-indazol-5-yl)pyridin-3-yl)-3,3-dimethylbutanamide] | 16.2 | 35.3 |  |
| 85 | 2300 | 34 | CC(C)C(=O)Nc1cncc(-c2ccc3[nH]nc(-c4cc5c(-c6cccnc6)cccc5[nH]4)c3c2)c1 [Compound 93, N-(5-(3-(4-(Pyridin-3-yl)-1H-indol-2-yl)-1H-indazol-5-yl)pyridin-3-yl) isobutyramide] |  |  |  |
| 474 | 2960 | 1810 | CN1CCN(c2cccc3[nH]c(-c4n[nH]c5ccc(-c6cncc(N)c6)cc45)cc23)CC1 [Compound 227, 5-(3-(4-(4-Methylpiperazin-1-yl)-1H-indol-2-yl)-1H-indazol-5-yl)pyridin-3-amine] |  |  |  |
| 490 | 2800 | 750 | c1ccc(-c2cccc3[nH]c(-c4n[nH]c5ccc(-c6cncc(CN7CCCC7)c6)cc45)cc23)nc1 [Compound 154, 3-(4-(Pyridin-2-yl)-1H-indol-2-yl)-5-(5-(pyrrolidin-1-ylmethyl)pyridin-3-yl)-1H-indazole] |  |  |  |
| 1780 | > 10000 | 488 | Fc1ccc(-c2cccc3[nH]c(-c4n[nH]c5ccc(-c6cncnc6)cc45)cc23)cc1 [Compound 55, 3-(4-(4-Fluorophenyl)-1H-indol-2-yl)-5-(pyrimidin-5-yl)-1H-indazole] | 26.3 |  |  |
| 575 | 4160 | > 10000 | CN(C)Cc1cncc(-c2ccc3[nH]nc(-c4cc5c(N6CCCCC6)cccc5[nH]4)c3c2)c1 [Compound 181, N,N-Dimethyl-1-(5-(3-(4-(piperidin-1-yl)-1H-indol-2-yl)-1H-indazol-5-yl)pyridin-3-yl)methanamine] |  | 40.7 |  |
| 57 | > 10000 | 4570 | CCC(=O)Nc1cncc(-c2ccc3[nH]nc(-c4cc5c(-c6cccc(F)c6)cccc5[nH]4)c3c2)c1 [Compound 1, N-(5-(3-(4-(3-Fluorophenyl)-1H-indol-2-yl)-1H-indazol-5-yl)pyridin-3-yl) propionamide] | 13.3 |  |  |
| 3910 | 3100 | 90 | c1ccc(-c2ccc3[nH]nc(-c4cc5c(-c6ccoc6)cccc5[nH]4)c3c2)nc1 [Compound 336, 3-(4-(Furan-3-yl)-1H-indol-2-yl)-5-(pyridin-2-yl)-1H-indazole] |  |  |  |
| 169 | 841 | 233 | CN(C)Cc1cncc(-c2ccc3[nH]nc(-c4cc5c(-c6cccs6)cccc5[nH]4)c3c2)c1 [Compound 349, N,N-Dimethyl-1-(5-(3-(4-(thiophen-2-yl)-1H-indol-2-yl)-1H-indazol-5-yl)pyridin-3-yl)methanamine] |  |  |  |
| 3830 | 3840 | 2800 | Fc1cccc(-c2cccc3[nH]c(-c4n[nH]c5ccc(C6CCNCC6)cc45)cc23)c1 [Compound 533, 3-(4-(3-Fluorophenyl)-1H-indol-2-yl)-5-(piperidin-4-yl)-1H-indazole] |  |  |  |
| 4120 | > 10000 | 1580 | c1ccc(-c2cccc3[nH]c(-c4n[nH]c5ccc(-c6ccncc6)cc45)cc23)nc1 [Compound 158, 3-(4-(Pyridin-2-yl)-1H-indol-2-yl)-5-(pyridin-4-yl)-1H-indazole] | 36.9 |  |  |
| 908 | 1090 | 270 | O=C(Nc1cncc(-c2ccc3[nH]nc(-c4cc5ncccc5[nH]4)c3c2)c1)c1ccccc1 [Compound 515, N-(5-(3-(1H-Pyrrolo[3,2-b]pyridin-2-yl)-1H-indazol-5-yl)pyridin-3-yl) benzamide] |  |  |  |
| 165 | 106 | 97 | c1cnc2cc(-c3n[nH]c4ccc(-c5cncc(CN6CCCCC6)c5)cc34)[nH]c2c1 [Compound 519, 5-(5-(Piperidin-1-ylmethyl)pyridin-3-yl)-3-(1H-pyrrolo[3,2-b]pyridin-2-yl)-1H-indazole] |  |  |  |
| 588 | > 10000 | > 10000 | O=C(Nc1cncc(-c2ccc3[nH]nc(-c4cc5ccccc5[nH]4)c3c2)c1)C1CCCCC1 [Compound 275, N-(5-(3-(1H-Indol-2-yl)-1H-indazol-5-yl)pyridin-3-yl) cyclohexanecarboxamide] | 9.5 | 32.5 |  |
| 1670 | > 10000 | > 10000 | CCCCC(=O)Nc1cncc(-c2ccc3[nH]nc(-c4cc5c(-c6ccccn6)cccc5[nH]4)c3c2)c1 [Compound 159, N-(5-(3-(4-(Pyridin-2-yl)-1H-indol-2-yl)-1H-indazol-5-yl)pyridin-3-yl) pentanamide] | 22.3 | 39.3 |  |
| 165 | > 10000 | > 10000 | CN(C)Cc1cncc(-c2ccc3[nH]nc(-c4cc5c(-c6ccc(F)cc6)cccc5[nH]4)c3c2)c1 [Compound 41, 1-(5-(3-(4-(4-Fluorophenyl)-1H-indol-2-yl)-1H-indazol-5-yl)pyridin-3-yl)-N,N-dimethylmethanamine] | 10 | 22.9 |  |
| 125 | > 10000 | > 10000 | CCCC(=O)Nc1cncc(-c2ccc3[nH]nc(-c4cc5c(-c6cccc(F)c6)cccc5[nH]4)c3c2)c1 [Compound 17, N-(5-(3-(4-(3-Fluorophenyl)-1H-indol-2-yl)-1H-indazol-5-yl)pyridin-3-yl) butyramide] | 12.9 | 24.7 |  |
| 4180 | > 10000 | 9930 | CCNCc1cncc(-c2ccc3[nH]nc(-c4cc5c(-c6ccccc6F)cccc5[nH]4)c3c2)c1 [Compound 62, N-((5-(3-(4-(2-Fluorophenyl)-1H-indol-2-yl)-1H-indazol-5-yl)pyridin-3-yl)methyl)ethanamine] | 44.5 |  |  |
| 530 | 3810 | > 10000 | O=C(Nc1cncc(-c2ccc3[nH]nc(-c4cc5c(-c6ccc(F)cc6)cccc5[nH]4)c3c2)c1)c1ccccc1 [Compound 39, N-(5-(3-(4-(4-Fluorophenyl)-1H-indol-2-yl)-1H-indazol-5-yl)pyridin-3-yl) benzamide] |  | 48.3 |  |
| > 10000 | > 10000 | > 10000 | FC1(F)CCN(Cc2cncc(-c3ccc4[nH]nc(-c5cc6c(-c7cccnc7)cccc6[nH]5)c4c3)c2)C1 [Compound 110, 5-(5-((3,3-Difluoropyrrolidin-1-yl)methyl)pyridin-3-yl)-3-(4-(pyridin-3-yl)-1H-indol-2-yl)-1H-indazole] | 20.3 | 32.2 | 30.1 |
| 3900 | > 10000 | 2330 | CS(=O)(=O)NCc1cc(F)cc(-c2cccc3[nH]c(-c4n[nH]c5ccc(-c6ccncc6)cc45)cc23)c1 [Compound 494, N-(3-Fluoro-5-(2-(5-(pyridin-4-yl)-1H-indazol-3-yl)-1H-indol-4-yl)benzyl) methane sulfonamide] | 22.3 |  |  |
| 380 | > 10000 | > 10000 | O=C(Nc1cncc(-c2ccc3[nH]nc(-c4cc5ccccc5[nH]4)c3c2)c1)c1ccccc1 [Compound 263, N-(5-(3-(1H-Indol-2-yl)-1H-indazol-5-yl)pyridin-3-yl)benzamide] | 2.9 | 0 |  |
